US20110065896A1, “POLYETHER POLYOL DENDRON CONJUGATES WITH EFFECTOR MOLECULES FOR BIOLOGICAL TARGETING” (MIVENION GMBH, priority 2008, published 2011)

Assays:
[1] = Fluorescence quantum yield of dendron dye in comparison to precursor dye; assay type: physicochemical
Source text: Fluorescence quantum yield of title compound of example 4a in comparison to precursor dye dendron bis-1,1′-(4-sulfobutyl)indotricarbocyanine-5,5′-dicarboxylic acid, sodium salt

[2] = Investigation of solubilities in PBS by observation of precipitates; assay type: physicochemical; conditions: conjugate solutions in PBS obtained in examples 10b and 10c, on storage
Method: Conjugation with IgG antibody: To a solution of 1 mg antibody (IgG from bovine serum; Sigma, >95%, salt free, powder) in […] of phosphate-buffered saline (PBS, pH 7.4) is given […] (32 μL) of a solution of 0.5 mg of N-hydroxysuccinimidyl ester of example 9 in 0.1 mL water. The mixture is shaken at 25° C. for 24 h in the dark. Purification is achieved by filtration via a NAP10 column (Pharmacia) using PBS as eluent. As control conjugate, pyropheophorbide a —NHS-ester is used for conjugation with IgG giving IgG-pyropheo conjugate.
Conjugation with bovine serum albumine (BSA): To a solution of 1 mg BSA (Sigma, fraction V, >98%, powder) in […] of phosphate-buffered saline (PBS, pH 7.4) is given […] (70 μL) of a solution of 0.5 mg of N-hydroxysuccinimidyl ester of example 9 in 0.1 mL water. The mixture is shaken at 25° C. for 24 h in the dark. Purification is achieved by filtration via a NAP 10 column (Pharmacia) using PBS as eluent.
Investigation of solubilities in PBS by observation of precipitates from the solutions obtained in examples 10b and 10c: […]

With `CC1(C)C(=CC=CC=CC=CC2=[N+](CCCCS(=O)(=O)[O-])c3ccc(C(=O)O)cc3C2(C)C)N(CCCCS(=O)(=O)[O-])c2ccc(C(=O)O)cc21.[Na+]` [Precursor dye, bis-1,1′-(4-sulfobutyl)indotricarbocyanine-5,5′-dicarboxylic acid, sodium salt] the Fluorescence quantum yield ([1]; MeOH) was 0.14 and the Fluorescence quantum yield ([1]; PBS) was 0.07.

With “BSA-pyropheo: control conjugate: pyropheophorbide a NHS-ester conjugated with BSA” the “Solubility in PBS by observation of precipitates” value [2] was “immediate precipates”.
